Reference: US20220040212A1, “ORAL REHYDRATION COMPOSITION WITH OLIGOSACCHARIDES” (ABBOTT LABORATORIES, priority 2013, published 2022)
Where “and” joins values, the source holds several entries; their conditions need not be identical. Identical values can stand only once.

Experiments:
[1] = Stability of oligosaccharides in oral rehydration solution, before/after retort sterilization and 3 weeks after (HPAEC); type: physicochemical; conditions: for LNnT / Lactose / % Theoretical LNnT: LNnT sample, pH 3.5; for % Theoretical LNnT: fortification 0.256 g/L
Description: A study was conducted to determine the relative stabilities of GOS, FOS, 2′-FL, 6′-SL, and LNnT in an oral rehydration solution. A master batch of product was prepared (shown in Table 1), the pH adjusted to approx. 4.25, and subsequently divided into five sub-batches.
Oligosaccharide ingredients were added to each of the sub-batches in amounts shown Table 2, and the pH of each sub-batch was subsequently adjusted to 3.5 with citric acid. The solutions were filled into 1 L plastic bottles, capped and retorted with a cook temperature of 217° F. for 25 minutes. Duplicate samples were collected immediately prior to sterilization and within 24 h after sterilization. Prior to sample analysis, the unsterile samples were stored at refrigerated temperature (˜40° F.) and the sterilized samples were held ambient temperature.
Samples were analyzed by HPAEC using a Dionex ICS3000 Ion Chromatography System (Thermo Scientific, Inc., Sunnyvale, Calif.) equipped with a pulsed amperometric detector comprised of a AgCl reference electrode, gold working electrode, and CarboPac PA1 guard (4×50 mm) and analytical columns (4×250 mm). Mobile phases were degassed and pressurized with 3 to 5 psi helium, and oligosaccharides eluted from the columns using various gradients detailed in Tables 3-5 at a flow rate of 1.0 mL/min. The column and detector were held at 20±2° C. Oligosaccharide identification and concentration were determined from quadratic fit (not forced through the origin) standard curves. […]
2′-FL fortification was calculated to be 0.2 g/L. Testing samples were reconstituted at 20 mL to 100 ml, with water, and then filtered using a 0.2 μm PES membrane syringe filter.
LNnT fortification was calculated to be 0.256 g/L. Testing samples were reconstituted at 20 mL to 100 ml, with water, and then filtered using a 0.2 μm PES membrane syringe filter.
6′-SL fortification was calculated to be 0.2 g/L. Testing samples were reconstituted at 20 mL to 100 mL with water, and then filtered using a 0.2 μm PES membrane syringe filter.

[2] = Stability of 2′-FL, LNnT and 6′-SL in an ORC over time (0 D to 14 weeks); type: physicochemical; conditions: for LNnT / Lactose / % Remaining * (LNnT) / % Remaining ** (LNnT): LNnT ORC pH 3.5; for % Remaining * (LNnT): vs target fortification
Description: Another study was performed to determine the stability of 2′-FL, LNnT, and 6′-SL in an ORC over time (e.g., 1 week, 3 weeks, 6 weeks, and 14 weeks).
Sample Preparation: A master batch with a pH of 4.25 is sub-divided. The oligosaccharides are added to the respective ORC in an amount of 0.2 g/L for 2′-FL and 6′-SL, LNnT was fortified in an amount of 0.256 g/L. The pH was then adjusted from 4.25 to 3.5 by addition of citric acid. Prior to sterilization, samples are collected to evaluate oligosaccharide levels. The formulas were then delivered into 1 L bottles and subjected to heat sterilization and allowed to cool to room temperature.
The data on day 0 was collected in duplicate for samples prior to sterilization (unsterile) and after sterilization (sterile), thereafter the data was collected only on the sterilized samples. […] The slight fluctuation in lactose and lactulose levels are likely due to method variability.
The data on day 0 was collected in duplicate for samples prior to sterilization (unsterile) and after sterilization (sterile), thereafter the data was collected only on the sterilized samples.
The data on day 0 was collected in duplicate for samples prior to sterilization (unsterile) and after sterilization (sterile), thereafter the data was collected only on the sterilized samples. […] At 14 weeks, the concentration was 2.3% of the target fortification amount.

[3] = 3-week after sterilization, average
[4] = 3-week after sterilization, samples 1, 2
[5] = sterile (after retort 217° F. 25 min), samples 1, 2
[6] = sterile (after retort), average

In the case of `CC(=O)N[C@H]1[C@H](O[C@H]2[C@@H](O)[C@@H](CO)O[C@@H](O[C@H]3[C@H](O)[C@@H](O)C(O)O[C@@H]3CO)[C@@H]2O)O[C@H](CO)[C@@H](O[C@@H]2O[C@H](CO)[C@H](O)[C@H](O)[C@H]2O)[C@@H]1O` (mixture of isomers) [LNnT, lacto-N-neotetraose], the “Stability in the exemplary formulations (in words)” value [1] is reported as “enhanced stability”, the LNnT [1, 3] is reported as 269 mg/L and the Lactose [1, 3] is reported as 28.1 mg/L. The “% Theoretical LNnT” value [1, 3] was 105%, the LNnT [1, 4] was 266.5 mg/L and 271.0 mg/L and the Lactose [1, 4] was 28.03 mg/L and 28.19 mg/L. The “% Theoretical LNnT” value [1, 4] was 104.2% and 106%, the LNnT [1, 5] was 261 mg/L and 261.1 mg/L and the Lactose [1, 5] was 26.34 mg/L and 27.26 mg/L. The LNnT [1, 6] was 261 mg/L, the Lactose [1, 6] was 26.8 mg/L and the “% Theoretical LNnT” value [1, 6] was 102%. For the same molecule, the “% Theoretical LNnT” value ([1]; sterile (after retort), samples 1, 2) was 102.1%, the LNnT ([1]; unsterile, average) was 258 mg/L and the Lactose ([1]; unsterile, average) was 25.6 mg/L. For the same molecule, the “% Theoretical LNnT” value ([1]; unsterile, average) was 101%, the LNnT ([1]; unsterile, samples 1, 2) was 257.6 mg/L and 259.4 mg/L and the Lactose ([1]; unsterile, samples 1, 2) was 25.78 mg/L and 25.46 mg/L. For the same molecule, the “% Theoretical LNnT” value ([1]; unsterile, samples 1, 2) was 100.7% and 101.4%, the “Further loss 3-weeks after sterilization, relative to sterilized sample (in words)” value ([1]; oral rehydration solution pH 3.5, 3-weeks after sterilization) was “no further loss” and the “Loss of oligosaccharide during sterilization (in words)” value ([1]; oral rehydration solution pH 3.5, retort 217° F. 25 min) was “no decrease”. For the same molecule, the LNnT ([2]; 0 D, sterile, average) was 261 mg/L, the Lactose ([2]; 0 D, sterile, average) was 26.8 mg/L and the “% Remaining * (LNnT)” value ([2]; 0 D, sterile, average) was 102%. For the same molecule, the LNnT ([2]; 0 D, sterile, samples 1, 2) was 261 mg/L and 261.1 mg/L, the Lactose ([2]; 0 D, sterile, samples 1, 2) was 26.34 mg/L and 27.26 mg/L and the “% Remaining * (LNnT)” value ([2]; 0 D, sterile, samples 1, 2) was 102.1%. The LNnT ([2]; 0 D, unsterile, average) was 258 mg/L, the Lactose ([2]; 0 D, unsterile, average) was 25.6 mg/L and the “% Remaining * (LNnT)” value ([2]; 0 D, unsterile, average) was 101%. The LNnT ([2]; 0 D, unsterile, samples 1, 2) was 257.6 mg/L and 259.4 mg/L, the Lactose ([2]; 0 D, unsterile, samples 1, 2) was 25.78 mg/L and 25.46 mg/L and the “% Remaining * (LNnT)” value ([2]; 0 D, unsterile, samples 1, 2) was 100.7% and 101.4%. The “% Remaining ** (LNnT)” value ([2]; 3 WK, sterile, average) was 105%, the LNnT ([2]; 3 WK, sterile, average) was 269 mg/L and the Lactose ([2]; 3 WK, sterile, average) was 28.10 mg/L. The “% Remaining ** (LNnT)” value ([2]; 3 WK, sterile, samples 1, 2) was 104.2% and 106%, the LNnT ([2]; 3 WK, sterile, samples 1, 2) was 266.5 mg/L and 271.0 mg/L and the Lactose ([2]; 3 WK, sterile, samples 1, 2) was 28.03 mg/L and 28.19 mg/L. For the same molecule, the “% Remaining ** (LNnT)” value ([2]; 6 WK, sterile, average) was 104%, the LNnT ([2]; 6 WK, sterile, average) was 267 mg/L and the Lactose ([2]; 6 WK, sterile, average) was 29.7 mg/L. The “% Remaining ** (LNnT)” value ([2]; 6 WK, sterile, samples 1, 2) was 103.9% and 104.9%, the LNnT ([2]; 6 WK, sterile, samples 1, 2) was 265.8 mg/L and 268.4 mg/L and the Lactose ([2]; 6 WK, sterile, samples 1, 2) was 30.89 mg/L and 28.6 mg/L. The “% Remaining ** (LNnT)” value ([2]; 14 WK, sterile, average) was 105%, the LNnT ([2]; 14 WK, sterile, average) was 269 mg/L and the Lactose ([2]; 14 WK, sterile, average) was 28 mg/L. For the same molecule, the “% Remaining ** (LNnT)” value ([2]; 14 WK, sterile, samples 1, 2) was 106.6% and 103.4%, the LNnT ([2]; 14 WK, sterile, samples 1, 2) was 272.7 mg/L and 264.3 mg/L and the Lactose ([2]; 14 WK, sterile, samples 1, 2) was 27.94 mg/L and 28.14 mg/L. The “Change of oligosaccharide level over the course of the study (in words)” value ([2]; ORC pH 3.5, heat sterilized, 0 D to 14 weeks) was “No substantial loss”.
